Test results reported in ChEMBL document CHEMBL1201862, “PubChem BioAssay data set” (2004).
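Growth conditions: 96-well plates. Treatment: test compound, 48 hours, 5 concentrations. Analysis: linear interpolation between bracketing concentrations; unreached endpoints set to highest concentration. Here, GI50 denotes the concentration required for 50% inhibition of growth.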 Activity calls are given as the source filed them. Rule as the data show it: active = GI50 up to about 1.1 µM and inactive = higher.

Legend:
Assay in all cases: growth of human tumour cells (NCI), 48 h
A549 = system: A549
786-0 = system: 786-0
CCRF-CEM = system: CCRF-CEM
SNB-75 = system: SNB-75
ACHN = system: ACHN
NCI-H460 = system: NCI-H460
MOLT-4 = system: MOLT-4
OVCAR-4 = system: OVCAR-4
SNB-19 = system: SNB-19
KM12 = system: KM12
SW-620 = system: SW-620
U-251 = system: U-251
Hs-578T = system: Hs-578T
OVCAR-5 = system: OVCAR-5
NCI/ADR-RES = system: NCI/ADR-RES
MDA-MB-231 = system: MDA-MB-231
HCT-15 = system: HCT-15
HOP-62 = system: HOP-62
SN12C = system: SN12C
Malme-3M = system: Malme-3M

Row | SMILES | GI50 (A549) | GI50 (786-0) | GI50 (CCRF-CEM) | GI50 (SNB-75) | GI50 (ACHN) | GI50 (NCI-H460) | GI50 (MOLT-4) | GI50 (OVCAR-4) | GI50 (SNB-19) | GI50 (KM12) | GI50 (SW-620) | GI50 (U-251) | GI50 (Hs-578T) | GI50 (OVCAR-5) | GI50 (NCI/ADR-RES) | GI50 (MDA-MB-231) | GI50 (HCT-15) [µM] | GI50 (HOP-62) | GI50 (SN12C) | GI50 (Malme-3M)
1 | COc1cc(C2C(Cl)C(=O)N2NC(=O)c2ccccc2O)cc(OC)c1OC (centres undefined) | 4.27 µM (inactive) | > 10 µM (inactive) | 1.65 µM (inactive) | > 10 µM (inactive) | 3.79 µM (inactive) | 2.64 µM (inactive) | 3.01 µM (inactive) | 3.99 µM (inactive) | 7.05 µM (inactive) | 5.58 µM (inactive) | 2.63 µM (inactive) | 3.54 µM (inactive) | 8.38 µM (inactive) | 5.96 µM (inactive) | – | – | – | – | – | –
2 | O=C1/C(=C/c2ccc([N+](=O)[O-])cc2)Oc2cc(O)ccc21 | 28.8 µM (inactive) | 22.2 µM (inactive) | 31 µM (inactive) | 32.2 µM (inactive) | 25.4 µM (inactive) | 31.5 µM (inactive) | 14.6 µM (inactive) | 39.6 µM (inactive) | 29.1 µM (inactive) | 36.5 µM (inactive) | 41 µM (inactive) | 28.1 µM (inactive) | 17.1 µM (inactive) | – | 28.8 µM (inactive) | 26.5 µM (inactive) | 25.1 | 31.2 µM (inactive) | 26.6 µM (inactive) | –
3 | CSc1ncnc2c1cnn2Cc1cn(CCCCO)nn1 | > 100 µM (inactive) | > 100 µM (inactive) | > 100 µM (inactive) | > 100 µM (inactive) | > 100 µM (inactive) | > 100 µM (inactive) | > 100 µM (inactive) | > 100 µM (inactive) | > 100 µM (inactive) | > 100 µM (inactive) | > 100 µM (inactive) | > 100 µM (inactive) | 71.1 µM (inactive) | > 100 µM (inactive) | – | > 100 µM (inactive) | > 100 | > 100 µM (inactive) | > 100 µM (inactive) | > 100 µM (inactive)
4 | CC1(C)O[C@@H](CP(c2ccc3ccccc3c2)c2ccc3ccccc3c2)[C@H](CP(c2ccc3ccccc3c2)c2ccc3ccccc3c2)O1 | > 100 µM (inactive) | > 100 µM (inactive) | > 100 µM (inactive) | > 100 µM (inactive) | > 100 µM (inactive) | > 100 µM (inactive) | 78.9 µM (inactive) | > 100 µM (inactive) | > 100 µM (inactive) | 70.1 µM (inactive) | > 100 µM (inactive) | > 100 µM (inactive) | – | > 100 µM (inactive) | > 100 µM (inactive) | > 100 µM (inactive) | > 100 | > 100 µM (inactive) | > 100 µM (inactive) | –
5 | Cc1cc(S(=O)(=O)[N-]/C(=N/S(=O)(=O)c2cc(Cl)sc2Cl)[n+]2ccc(N(C)C)cc2)c(S)cc1Cl | – | 68.2 µM (inactive) | 64 µM (inactive) | – | 67 µM (inactive) | 44.3 µM (inactive) | 84.3 µM (inactive) | 37.2 µM (inactive) | – | > 100 µM (inactive) | 49.9 µM (inactive) | 45.2 µM (inactive) | 40.4 µM (inactive) | 49.3 µM (inactive) | > 100 µM (inactive) | 77.3 µM (inactive) | 42.7 | 42.3 µM (inactive) | – | –
6 | c1csc(-c2ccc(-c3ccc(-c4ccc(-c5cccs5)s4)s3)s2)c1 | – | > 100 µM (inactive) | 26.5 µM (inactive) | > 100 µM (inactive) | > 100 µM (inactive) | > 100 µM (inactive) | 31.6 µM (inactive) | – | – | – | > 100 µM (inactive) | > 100 µM (inactive) | > 100 µM (inactive) | > 100 µM (inactive) | > 100 µM (inactive) | – | > 100 | 34 µM (inactive) | > 100 µM (inactive) | –
7 | CSc1nn(C)cc2nc(C)nc1-2 | > 100 µM (inactive) | > 100 µM (inactive) | > 100 µM (inactive) | > 100 µM (inactive) | > 100 µM (inactive) | > 100 µM (inactive) | > 100 µM (inactive) | – | > 100 µM (inactive) | > 100 µM (inactive) | > 100 µM (inactive) | > 100 µM (inactive) | > 100 µM (inactive) | > 100 µM (inactive) | > 100 µM (inactive) | > 100 µM (inactive) | > 100 | > 100 µM (inactive) | > 100 µM (inactive) | –
8 | S=C1NC2=C(COc3ccccc32)C(c2ccc(Cl)cc2)N1 (centres undefined) | 20.2 µM (inactive) | 19.2 µM (inactive) | 21.3 µM (inactive) | 20 µM (inactive) | 22.9 µM (inactive) | – | 12.8 µM (inactive) | – | 22.9 µM (inactive) | 16.2 µM (inactive) | 28.6 µM (inactive) | > 10 µM (inactive) | 21.6 µM (inactive) | 16.3 µM (inactive) | 18.9 µM (inactive) | 17.4 µM (inactive) | – | 17.1 µM (inactive) | 2.54 µM (inactive) | –
9 | Nc1c(S(=O)(=O)c2ccccc2)c2nc3ccccc3nc2n2c1nc1ccccc12 | > 51.5 µM (inactive) | 8.09 µM (inactive) | > 39.2 µM (inactive) | 7.83 µM (inactive) | > 64.4 µM (inactive) | 34.3 µM (inactive) | > 29.4 µM (inactive) | 19.8 µM (inactive) | > 51.8 µM (inactive) | > 64 µM (inactive) | > 68.2 µM (inactive) | 24.7 µM (inactive) | – | > 100 µM (inactive) | – | – | 36.1 | 19.4 µM (inactive) | > 48.1 µM (inactive) | 19.5 µM (inactive)
10 | COc1cc(C(C)=O)cc(C(=O)N(C(C)C)C(C)C)c1[Si](C)(C)C | 67.8 µM (inactive) | > 100 µM (inactive) | > 100 µM (inactive) | 9.2 µM (inactive) | > 100 µM (inactive) | > 100 µM (inactive) | 79.6 µM (inactive) | > 100 µM (inactive) | > 100 µM (inactive) | > 100 µM (inactive) | > 100 µM (inactive) | > 100 µM (inactive) | > 100 µM (inactive) | – | – | > 100 µM (inactive) | > 100 | > 100 µM (inactive) | – | –
11 | CN(C)C(=O)C(F)(F)C(c1ccccc1Br)C1C(=O)N(C)C(=O)N(C)C1=O (centres undefined) | > 100 µM (inactive) | > 100 µM (inactive) | > 100 µM (inactive) | > 100 µM (inactive) | > 100 µM (inactive) | > 100 µM (inactive) | – | > 100 µM (inactive) | > 100 µM (inactive) | > 100 µM (inactive) | > 100 µM (inactive) | > 100 µM (inactive) | – | > 100 µM (inactive) | > 100 µM (inactive) | > 100 µM (inactive) | > 100 | > 100 µM (inactive) | – | > 100 µM (inactive)
12 | CC1(C)/C(=N\NC(N)=O)C2CCC1C2 (centres undefined) | > 100 µM (inactive) | > 100 µM (inactive) | > 100 µM (inactive) | > 100 µM (inactive) | > 100 µM (inactive) | > 100 µM (inactive) | > 100 µM (inactive) | > 100 µM (inactive) | > 100 µM (inactive) | > 100 µM (inactive) | > 100 µM (inactive) | > 100 µM (inactive) | > 100 µM (inactive) | > 100 µM (inactive) | > 100 µM (inactive) | – | > 100 | > 100 µM (inactive) | – | > 100 µM (inactive)
13 | CC(=O)/C(=C/NC(=S)c1cccnc1)C(=O)Nc1ccccc1C | > 100 µM (inactive) | > 100 µM (inactive) | > 100 µM (inactive) | > 100 µM (inactive) | > 100 µM (inactive) | > 100 µM (inactive) | > 100 µM (inactive) | > 100 µM (inactive) | > 100 µM (inactive) | > 100 µM (inactive) | > 100 µM (inactive) | 71.9 µM (inactive) | > 100 µM (inactive) | > 100 µM (inactive) | 97.5 µM (inactive) | > 100 µM (inactive) | > 100 | > 100 µM (inactive) | > 100 µM (inactive) | –
14 | O=C1CSc2nnc(CCCCCCCCc3nnc4n3NC(=O)CS4)n2N1 | > 100 µM (inactive) | 32.6 µM (inactive) | 15.3 µM (inactive) | 32.1 µM (inactive) | > 100 µM (inactive) | > 100 µM (inactive) | 31.3 µM (inactive) | > 100 µM (inactive) | 32.1 µM (inactive) | > 100 µM (inactive) | 73.6 µM (inactive) | 35.4 µM (inactive) | – | > 100 µM (inactive) | > 100 µM (inactive) | 69.3 µM (inactive) | 37.2 | 46 µM (inactive) | > 100 µM (inactive) | 31.9 µM (inactive)
15 | O=C(O)C[C@@H](Cl)[C@H](NC(=O)OCc1ccccc1)C(=O)O | > 100 µM (inactive) | > 100 µM (inactive) | > 100 µM (inactive) | > 100 µM (inactive) | > 100 µM (inactive) | > 100 µM (inactive) | > 100 µM (inactive) | > 100 µM (inactive) | > 100 µM (inactive) | > 100 µM (inactive) | > 100 µM (inactive) | > 100 µM (inactive) | – | > 100 µM (inactive) | – | – | > 100 | > 100 µM (inactive) | > 100 µM (inactive) | > 100 µM (inactive)
16 | CC(O)CCCCC(O)CCC[C@H](O)[C@H]1CCC([C@H]2CCC([C@@H](O)CCCCCCCCCCCCC3=C[C@H](C)OC3=O)O2)O1 (some centres undefined) | 7.94 µM (inactive) | 14.4 µM (inactive) | 9.38 µM (inactive) | 9.12 µM (inactive) | 10.2 µM (inactive) | 8.22 µM (inactive) | 3.9 µM (inactive) | 12.6 µM (inactive) | 10.3 µM (inactive) | 5.48 µM (inactive) | 12.8 µM (inactive) | 10.8 µM (inactive) | 12.3 µM (inactive) | 11.4 µM (inactive) | 2.44 µM (inactive) | 10.4 µM (inactive) | 14.7 | 10.6 µM (inactive) | 12.2 µM (inactive) | –
